What was measured:
[1] = Resazurin; details: human
[2] = tested on: MDA-MB-231 cells; assay: Resazurin; details: MDA-MB-231 cells
[3] = In vitro metabolic stability in mouse liver microsomes
[4] = tested on: 13 other methyltransferases; type: biochemical; details: read-out: IC50 against 13 other methyltransferases
[5] = target: PRC2 – EZH2 (Homo sapiens, UniProt Q15910); assay: biochemical
[6] = tested on: panel of 50 representative kinases; assay: Kinase selectivity panel; type: biochemical; details: at 10,000 nM
[7] = tested on: 44 GPCRs, transporters, and ion channels; type: binding
[8] = target: T1, G9a (Homo sapiens, UniProt Q96KQ7); assay: Competition of inhibitor with cofactor SAM; type: biochemical; details: Km app of SAM versus inhibitor concentration
T1 sequence (Q96KQ7 1-1210): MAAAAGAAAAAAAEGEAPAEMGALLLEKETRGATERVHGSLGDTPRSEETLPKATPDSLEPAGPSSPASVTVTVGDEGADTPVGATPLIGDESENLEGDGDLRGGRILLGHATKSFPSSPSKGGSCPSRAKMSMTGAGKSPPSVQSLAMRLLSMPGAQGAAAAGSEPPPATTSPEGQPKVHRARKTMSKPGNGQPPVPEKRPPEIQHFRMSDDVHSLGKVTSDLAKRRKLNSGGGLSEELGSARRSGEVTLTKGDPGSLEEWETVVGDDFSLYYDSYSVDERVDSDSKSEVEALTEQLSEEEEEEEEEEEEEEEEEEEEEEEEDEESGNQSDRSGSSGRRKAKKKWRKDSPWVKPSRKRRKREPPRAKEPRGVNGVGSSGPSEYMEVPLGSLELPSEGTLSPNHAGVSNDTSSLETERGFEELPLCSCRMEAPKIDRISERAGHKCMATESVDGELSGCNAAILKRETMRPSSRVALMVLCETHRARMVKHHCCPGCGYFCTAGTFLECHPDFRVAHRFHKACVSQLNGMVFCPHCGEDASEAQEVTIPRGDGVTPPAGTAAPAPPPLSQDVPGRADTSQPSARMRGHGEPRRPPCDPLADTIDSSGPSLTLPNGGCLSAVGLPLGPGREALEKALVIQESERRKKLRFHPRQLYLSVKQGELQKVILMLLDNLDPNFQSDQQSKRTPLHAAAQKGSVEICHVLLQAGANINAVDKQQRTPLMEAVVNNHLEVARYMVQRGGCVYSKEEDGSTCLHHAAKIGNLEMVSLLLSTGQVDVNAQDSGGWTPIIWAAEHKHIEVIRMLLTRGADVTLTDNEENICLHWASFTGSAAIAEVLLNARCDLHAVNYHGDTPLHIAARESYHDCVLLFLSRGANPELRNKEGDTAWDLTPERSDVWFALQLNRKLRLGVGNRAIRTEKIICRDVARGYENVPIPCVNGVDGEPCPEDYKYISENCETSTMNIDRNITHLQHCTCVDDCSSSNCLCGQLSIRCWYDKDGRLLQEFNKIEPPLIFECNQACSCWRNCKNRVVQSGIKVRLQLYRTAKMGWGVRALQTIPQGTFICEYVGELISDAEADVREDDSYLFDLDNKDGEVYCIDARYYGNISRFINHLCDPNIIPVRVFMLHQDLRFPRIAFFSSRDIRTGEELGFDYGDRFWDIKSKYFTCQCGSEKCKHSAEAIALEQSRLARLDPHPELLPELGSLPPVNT

[9] = Resazurin cell toxicity assay; type: cell-based; details: human, U2OS cells
[10] = Resazurin cell toxicity assay; type: cell-based; details: human, PANC-1 cells, Cell Toxicity EC50, PANC-1 cells
[11] = tested on: PANC-1 cells; assay: Clonogenicity assay; type: cell-based; details: 2 weeks, 0.5 or 1 µM
[12] = tested on: MDA-MB-231 cells; assay: Clonogenicity assay; type: cell-based; details: 2 weeks, 0.5 or 1 µM
[13] = target: T1, G9a; details: Km app of peptide versus inhibitor concentration

PRC2 – EZH2, sequence (Q15910 whole entry): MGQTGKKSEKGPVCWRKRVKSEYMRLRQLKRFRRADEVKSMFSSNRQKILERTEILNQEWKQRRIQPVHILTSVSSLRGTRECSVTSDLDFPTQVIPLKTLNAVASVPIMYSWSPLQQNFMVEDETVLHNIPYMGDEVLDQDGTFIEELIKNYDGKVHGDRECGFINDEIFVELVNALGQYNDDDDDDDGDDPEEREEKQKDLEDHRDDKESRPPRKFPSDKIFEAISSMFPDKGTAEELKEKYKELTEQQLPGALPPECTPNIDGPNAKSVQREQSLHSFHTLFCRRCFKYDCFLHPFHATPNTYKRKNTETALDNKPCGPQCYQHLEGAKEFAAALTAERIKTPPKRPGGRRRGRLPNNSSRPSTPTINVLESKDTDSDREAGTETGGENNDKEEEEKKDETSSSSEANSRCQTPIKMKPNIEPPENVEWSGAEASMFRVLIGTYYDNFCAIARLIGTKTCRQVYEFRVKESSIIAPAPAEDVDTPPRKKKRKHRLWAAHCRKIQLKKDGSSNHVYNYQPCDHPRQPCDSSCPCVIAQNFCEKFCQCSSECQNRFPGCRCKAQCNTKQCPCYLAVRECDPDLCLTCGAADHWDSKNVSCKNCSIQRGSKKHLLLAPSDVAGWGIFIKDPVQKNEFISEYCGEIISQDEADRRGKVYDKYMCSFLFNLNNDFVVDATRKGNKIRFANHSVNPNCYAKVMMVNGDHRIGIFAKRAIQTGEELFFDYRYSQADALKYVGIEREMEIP
PRC2 – EZH2, sequence (O75530 whole entry, further chain): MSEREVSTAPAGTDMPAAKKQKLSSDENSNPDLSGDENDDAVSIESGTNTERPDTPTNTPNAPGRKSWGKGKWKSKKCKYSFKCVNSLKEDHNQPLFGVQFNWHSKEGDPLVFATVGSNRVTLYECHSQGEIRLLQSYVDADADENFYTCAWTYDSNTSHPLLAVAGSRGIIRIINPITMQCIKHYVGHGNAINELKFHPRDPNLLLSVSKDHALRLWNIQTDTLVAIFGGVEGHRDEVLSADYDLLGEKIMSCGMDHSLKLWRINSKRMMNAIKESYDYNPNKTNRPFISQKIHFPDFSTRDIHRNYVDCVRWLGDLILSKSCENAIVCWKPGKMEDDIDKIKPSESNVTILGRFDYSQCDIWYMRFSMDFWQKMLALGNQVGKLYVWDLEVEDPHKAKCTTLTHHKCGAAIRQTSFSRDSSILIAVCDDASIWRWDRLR
PRC2 – EZH2, sequence (Q15022 whole entry, further chain): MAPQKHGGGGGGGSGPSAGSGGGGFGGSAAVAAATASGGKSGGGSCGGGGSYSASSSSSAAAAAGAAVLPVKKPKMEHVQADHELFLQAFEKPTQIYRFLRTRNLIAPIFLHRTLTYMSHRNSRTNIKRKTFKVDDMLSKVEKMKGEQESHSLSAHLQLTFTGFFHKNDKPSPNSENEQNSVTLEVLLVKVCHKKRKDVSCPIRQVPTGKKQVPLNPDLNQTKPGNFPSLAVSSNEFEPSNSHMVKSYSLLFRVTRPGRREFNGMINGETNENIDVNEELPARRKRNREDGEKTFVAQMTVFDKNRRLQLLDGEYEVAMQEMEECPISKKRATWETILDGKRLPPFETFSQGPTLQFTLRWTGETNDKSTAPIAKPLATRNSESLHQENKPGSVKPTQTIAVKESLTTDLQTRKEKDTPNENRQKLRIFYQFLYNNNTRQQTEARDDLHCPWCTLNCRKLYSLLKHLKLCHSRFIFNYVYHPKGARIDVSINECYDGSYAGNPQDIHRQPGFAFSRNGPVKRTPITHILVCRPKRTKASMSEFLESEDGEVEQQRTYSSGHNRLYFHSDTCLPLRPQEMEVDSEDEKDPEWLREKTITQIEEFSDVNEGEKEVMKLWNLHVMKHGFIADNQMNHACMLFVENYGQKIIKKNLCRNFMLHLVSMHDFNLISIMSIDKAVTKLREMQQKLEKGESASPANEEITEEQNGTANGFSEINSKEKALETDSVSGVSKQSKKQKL

COc1cc2c(NC3CCN(C(C)C)CC3)nc(C3CCOCC3)nc2cc1OCCCN1CCCC1 [Compound 22, N-(1-Isopropylpiperidin-4-yl)-6-methoxy-7-(3-(pyrrolidin-1-yl)propoxy)-2-(tetrahydro-2H-pyran-4-yl)quinazolin-4-amine]
EC50 at 48 h [1]: > 50 µM | Tox/function Ratio ([2]; toxicity EC50 divided by functional IC50): > 130 | CLint [3]: 4.7 mL/min/g liver

COc1cc2c(NC3CCN(C4CC4)CC3)nc(N3CCS(=O)(=O)CC3)nc2cc1OCCCN1CCCC1 [Compound 19, 4-(4-((1-Cyclopropylpiperidin-4-yl)amino)-6-methoxy-7-(3-(pyrrolidin-1-yl)propoxy)quinazolin-2-yl)thiomorpholine 1,1-dioxide]
EC50 at 48 h [1]: > 50 µM

COc1cc2c(NC3CCN(C(C)C)CC3)nc(N3CCC(F)(F)CC3)nc2cc1OCCCN1CCCC1 [Compound 7, 2-(4,4-Difluoropiperidin-1-yl)-N-(1-isopropylpiperidin-4-yl)-6-methoxy-7-(3-(pyrrolidin-1-yl)propoxy)quinazolin-4-amine]
IC50 [4]: > 50 µM | IC50 [5]: > 5 µM | Inhibition of panel of 50 representative kinases [6]: less than 20% | Inhibition against 5 targets of the 44-target panel [7]: > 50% | Inhibition against 39 targets of the 44-target panel [7]: less than 50% | Mechanism of action versus cofactor SAM [8]: non-competitive with the cofactor SAM | EC50 at 48 h [9]: > 3000 nM | EC50 at 48 h [10]: > 3000 nM | Effect on clonogenicity [11]: reduced clonogenicity in PANC-1 cells in a concentration-dependent manner | Effect on clonogenicity [12]: no effect on clonogenicity | Mechanism of action versus peptide substrate [13]: competitive with the peptide substrate | CLint [3]: 0.5 mL/min/g liver

COc1cc2c(NC3CCN(C(C)C)CC3)nc(N3CCOCC3)nc2cc1OCCCN1CCCC1 [Compound 13, N-(1-Isopropylpiperidin-4-yl)-6-methoxy-2-morpholino-7-(3-(pyrrolidin-1-yl)propoxy)quinazolin-4-amine]
CLint [3]: 0.7 mL/min/g liver

COc1cc2c(NC3CCN(C(C)C)CC3)nc(N3CC(F)(F)C(F)(F)C3)nc2cc1OCCCN1CCCC1 [Compound 15, N-(1-Isopropylpiperidin-4-yl)-6-methoxy-7-(3-(pyrrolidin-1-yl)propoxy)-2-(3,3,4,4-tetrafluoropyrrolidin-1-yl)quinazolin-4-amine]
CLint [3]: < 0.5 mL/min/g liver

COc1cc2c(NC3CCN(C(C)C)CC3)nc(C3CCCCC3)nc2cc1OCCCN1CCCC1 [Compound 5, reference compound]
CLint [3]: 1.0 mL/min/g liver

COc1cc2c(NC3CCN(C(C)C)CC3)nc(N3CCCCC3)nc2cc1OCCCN1CCCC1 [Compound 16]
EC50 at 48 h [1]: 7 µM

COc1cc2c(NC3CCN(C(C)C)CC3)nc(N3CCCCCC3)nc2cc1OCCCN1CCCC1 [Compound 17]
EC50 ([2]; read-out: Cell Toxicity EC50, 48 h): 5.7 µM
